Reference: patent US7988956B2, “Hydrolytically degradable carbamate derivatives of poly(ethylene glycol)” (Nektar Therapeutics, priority 1999, dated 2011)

Experiments:
[1] = Hydrolysis of the PEG conjugate of lysozyme monitored by capillary electrophoresis; assay type: physicochemical; settings: after hydrolysis for 10 days at pH 7 and 37° C.; CE, FIG. 1 Curve B
Description: The conjugates prepared as described above were placed at 37° C. and at room temperature and hydrolysis was monitored by capillary electrophoresis (CE).
CE conditions: A solution of 25 mM phosphate buffer, containing 0.1 mg/ml PEO 600K, pH 2.7 was flushed through the capillary for approximately 15-20 min. A voltage of 15 kV was applied until a smooth baseline was obtained. The 25 mM phosphate buffer solution was again flushed through for approximately 5 min and the capillary was then ready for sample injection. The sample, which was adjusted to pH 2 by a phosphate buffer (0.1 M, pH 2), was injected hydrostatically for about […] at a height of approximately 6 inches. A voltage of 15 kV was applied throughout the run with a current between 24 and 30 μA. The protein and PEG-protein conjugate were detected by a UV monitor at 214 nm. The CE instrument consists of a high-voltage power supply (Spellman CZE1000R), a fused silica capillary (75 μm i.d., 360 μm o.d., Polymicro Technologies, Phoenix, Ariz.) and a linear 200 UV/VIS monitor supplied with a deuterium lamp and a capillary flow cell. The total length of the capillary was 64.5 cm, with a 1 cm optical window at 40 cm from the anode. UV data was retrieved and stored using LabVIEW version 4.0.1 software (National Instruments).

[2] = test system: Micrococcus lysodeikticus; test: Bioactivity measurement of reversible lysozyme conjugate (Sigma HEW lysozyme protocol, decrease in absorbance at 450 nm); assay type: biochemical; settings: 66 mM sodium phosphate buffer pH 6.24
Description: Bioactivity of free lysozyme, PEG conjugates of lysozyme and lysozyme recovered from hydrolysis of the conjugates were measured by an assay from the standard protocol of Sigma for hen's egg white (HEW) lysozyme EC.3.2.1.17. A solution containing the unmodified or PEG-modified lysozyme was diluted to 5.5 μg/ml in a 66 mM sodium phosphate buffer (pH 6.24). A suspension of 1.5 mg Micrococcus lysodeikticus in 10 ml of 66 mM phosphate buffer (pH 6.24) was allowed to equilibrate at room temperature until the absorbance at 450 nm was constant. Then 0.1 ml of a lysozyme solution was placed in a 1 cm light path quatz cuvette containing 2.5 ml of the substrate suspension. The decrease in the absorbance at 450 nm was recorded and the activity was determined from the maximum linear rate. Eighty-two percent of lysozyme bioactivity was recovered from the m-PEG-lysozyme conjugate, while the mPEG lysozyme had undetectable bioactivity prior to hydrolysis.

mPEG-lysozyme conjugate: mPEG-lysozyme conjugate prepared with N-mPEG benzamide-m-succimidyl carbonate; mono, di and tri PEGylated lysozyme
free lysozyme released [1]: more than 85% | bioactivity prior to hydrolysis ([2]; PEG conjugate before hydrolysis): undetectable | lysozyme bioactivity recovered from the conjugate ([2]; lysozyme recovered from hydrolysis of the conjugate): Eighty-two
